Results: US11590242B2, “Antibody-mediated autocatalytic, targeted delivery of nanocarriers to tumors” (Yale University, priority 2016, dated 2023)

Columns and labels:
[1] = Blood concentrations of DOX-NPs with and without 3E10^EN as a function of time; format: in vivo, BALB/c mice; conditions: 1 mg DOX-NPs i.v., coumarin 6 co-loaded, 5 min-48 h
Method: Blood concentrations of DOX-NPs with and without conjugation of 3E10^EN recorded as a function of time. To enable detection of NPs, NPs were co-loaded with 1% coumarin 6. Six BALB/c mice were randomly assigned to two groups, which received intravenous administration of 1 mg DOX-NPs with and without conjugation of 3E10^EN, respectively. At 5 min, 15 min, 30 min, 1 h, 2 h, 4 h, 6 h, 24 h, 36 h and 48 h post injection, 20 uL blood sample from each mouse was collected into a 1.5 mL Eppendorf tube and lyophilized. Then, 100 uL DMSO and 1 mL acetonitrile were added to each tube. After sonication in a water bath sonicator for 15 min, samples were subjected to centrifugation at 4000 rpm for 20 min to remove cellular fragments and blood albumin. Then, 0.8 ml supernatant from each sample was collected and added to an eppendorf tube. The acetonitrile was evaporated and the dye in the DMSO was quantified at Ex/Em 444/505 nm using a plate reader (BioTek ELx800).

[2] = tested on: Cal12T lung cancer cells; experiment: Delivery of nanoparticles into living cells (fluorescence microscopy, anti-myc immunostaining); format: cell-based; conditions: fixed cells
[3] = tested on: 4T1 tumors; experiment: Antitumor evaluation in mouse tumor xenografts; format: in vivo, mice; conditions: end of study, vs PBS control, i.v. three times a week
Method: Mice bearing 4T1 tumors were established as described above. […] Treatment was performed 3 times per week. Nanoparticles were administered at 1 mg, equal to 80 ug DOX per mouse. Tumor sizes were measured three times a week. Mice were euthanized when tumor volume reached 1000 mm^3, at which point the tumors were excised and fixed in formalin for immunohistochemistry. Serial sections were obtained and stained with hematoxylin and eosin (H&E) and Terminal Deoxynucleotidyl Transferase (TUNEL) for analysis of therapeutic effect. The growth curve was plotted using the mean of the tumor volumes for each treatment group, at each timepoint.

[4] = tested on: 4T1 murine breast cancer cells; experiment: Cytotoxicity evaluation, MTT assay; format: cell-based, mouse; conditions: three days treatment, listed as Free DOX
Method: All chemicals were purchased from Sigma-Aldrich unless otherwise noted. The mouse mammary tumor cell line 4T1 was obtained from American Type Culture Collection (ATCC) and cultured in DMEM medium (Invitrogen) supplemented with 10% fetal bovine serum (Invitrogen), 100 units/ml penicillin and 100 ug/ml streptomycin (Invitrogen), in a 37° C. incubator containing 5% CO2.
4T1 cells were plated in a 96-well cell culture plate at a concentration of 2×10^3 per well and incubated with concentrations of nanoparticles ranging from 1.25 to 500 ug/mL. The same amounts of free DOX were added to parallel wells as controls. Three days after treatment, the effect of treatments on cell proliferation was determined using the standard MTT assay.

| Compound | Circulation life of NPs [1] | Subcellular localization of di-scFv [2] | Reduction of tumor volume [3] [%] | Effect on viability of 4T1 cells [4] |
| --- | --- | --- | --- | --- |
| 3E10^EN: enhanced di-single chain variable fragment of anti-DNA antibody 3E10 with D31N mutation, SEQ ID NO:12 | did not alter the circulation life of NPs | penetrated into cell nuclei | – | – |
| COc1cccc2c1C(=O)c1c(O)c3c(c(O)c1C2=O)C[C@@](O)(C(=O)CO)C[C@@H]3O[C@H]1C[C@H](N)[C@H](O)[C@H](C)O1 [DOX, doxorubicin] | – | – | 26 | comparable inhibition of cells |
